Results: patent US5554620A, “Substituted 6,11-ethano-6,11-dihydrobenzo[b] quinolizinium salts and compositions and methods of use thereof” (Sterling Winthrop Inc., priority 1994, dated 1996)

What follows are compounds tested against PCP receptor (assay: [3H]TCP radioreceptor assay (binding to PCP recognition sites)). Conditions: [3H]TCP approx. 1 nM, rat brain membranes; mean of at least two determinations.
Set-up: species or system rat (male Sprague-Dawley, whole brain)
Experimental: [^3 H]TCP Radioreceptor Assay
[^3 H]TCP binding to PCP recognition sites was performed as described by Vignon et al. Brain Research 1983, 280, 194-197. Male Sprague-Dawley rats were sacrificed by decapitation, and whole brains were homogenized in 10 volumes (wt/vol) of cold Tris-HCl buffer (50 mM, pH 7.7) using a Brinkmann Polytron (setting 6, 30 sec). The homogenate was centrifuged at 40,000×g for 10 min at 4° C. The supernatant was decanted, and the homogenization and centrifugation steps were repeated twice as described above. Following this, the pellet was resuspended in Tris-HCl (5 mM, pH 7.7) at a tissue concentration of 0.5-0.75 g/mL, and one mL aliquots were frozen at -70° C. until use. The binding characteristics for PCP recognition sites were not altered by the freezing of membrane suspensions.
On the day of the assay, membrane aliquots were thawed, resuspended in fresh 5 mM Tris-HCl buffer at a tissue concentration of 1 mg/mL, and stored on ice until use. Each assay tube contained 100 μl of [^3 H]TCP at a final concentration of approximately 1 nM, 100 μL of various concentrations of the compounds of interest, 500 μL of the tissue suspension and 300 μL of buffer to a final assay volume of 1 mL and a final protein concentration of 0.5 mg/tube. Non-specific binding was defined by addition of a final concentration of 100 μM PCP to blank tubes. All tubes were incubated at room temperature for 25 min before termination of the reaction by rapid filtration over Whatman GF/B glass fiber filters that had been presoaked in a solution of 0.5% polyethylenimine for at least 1 hr prior to use. Filters were washed with three 4 mL volumes of cold Tris buffer. Following addition of scintillation cocktail, the amount of bound radioactivity was determined by liquid scintillation spectrometry using a Beckman LS 5000TA liquid scintillation counter with an efficiency for tritium of approximately 55%. Inhibition constants (Ki values) were calculated using the EBDA/LIGAND program (McPherson, J. Pharmacol. Meth. 1985, 14, 213-228), purchased from ElsevierBiosoft, Inc. Results are reported as the Ki values (in nM) which are expressed as the mean of at least two separate determinations; or as a percent (%) inhibition of binding at 10 μM.

| Structure (SMILES) | Ki |
| --- | --- |
| COc1cccc2c1C1c3cccc[n+]3C2CC1(c1ccccc1)c1ccccc1 (stereo not drawn) [Example 26, 6,11-ethano-12,12-diphenyl-10-methoxy-6,11-dihydrobenzo[b]quinolizinium chloride] | 32.7 nM |
| [O-][Cl+3]([O-])([O-])[O-].c1ccc(C2(N3CCOCC3)CC3c4ccccc4C2c2cccc[n+]23)cc1 (stereo not drawn) [111(b), 6,11-Ethano-12-phenyl-12-(4-morpholinyl)-6,11-dihydrobenzo[b]quinolizinium perchlorate] | 37.8 nM |
| CC(=O)Oc1ccc[n+]2c1C1c3ccccc3C2CC1(c1ccoc1)c1ccoc1 (stereo not drawn) [Example 170, 6,11-ethano-12,12-di(3-furyl)-1-acetyloxy-6,11-dihydrobenzo-[b]quinolizinium chloride] | 232 nM |
| c1ccc2c(c1)C1C3CCc4occc4C3(c3cc4ccccc4o3)C2c2cccc[n+]21 (stereo not drawn) [Example 10(c), 6,11[[5',4']-4'-(2-benzofuryl)-4',5',6',7'-tetrahydrobenzofuryl]6,11-dihydrobenzo[b]quinolizinium hexafluorophosphate] | 1100 nM |
| [O-][Cl+3]([O-])([O-])[O-].c1ccc2c(c1)C1CC(c3cncs3)(c3cncs3)C2c2cccc[n+]21 (stereo not drawn) [62(c), 6,11-ethano-12,12-di(5-thiazolyl)-6,11-dihydrobenzo[b]quinolizinium perchlorate] | 120 nM |
| c1cc[n+]2c(c1)C1c3c(ccc4c3OCO4)C2CC1(c1ccoc1)c1ccoc1 (stereo not drawn) [183(c), 6,11-ethano-12,12-di(3-furyl)-9,10-methylenedioxy-6,11-dihydrobenzo[b]quinolizinium chloride] | 2.72 nM |
| CC12CC(c3ccccc3)(c3ccccc3)C(c3ccccc31)c1cccc[n+]12 (single isomer, unassigned) [20(h), 6,11-ethano-12,12-diphenyl-6-methyl-6,11-dihydrobenzo[b]quinolizinium chloride 1/2 hydrate] | 7.15 nM |
| COc1ncccc1C1(c2cccnc2OC)CC2c3ccccc3C1c1cccc[n+]12.[O-][Cl+3]([O-])([O-])[O-] (stereo not drawn) [160(d), 6,11-ethano-12,12-di-(2-methoxypyridin-3-yl)-6,11-dihydrobenzo[b]quinolizinium perchlorate] | 453 nM |
| Oc1ccc[n+]2c1C1c3ccccc3C2CC1(c1ccoc1)c1ccoc1 (stereo not drawn) [Example 168(c), 6,11-ethano-12,12-di(3-furyl)-1-hydroxy-6,11-dihydrobenzo[b]quinolizinium chloride] | 306 nM |
| Oc1ccc2[n+](c1)C1CC(c3ccoc3)(c3ccoc3)C2c2ccccc21 (stereo not drawn) [Example 191(f), 12,12-di(3-furyl)-3-hydroxy-6,11-ethano-6,11-dihydrobenzo[b]quinolizinium chloride] | 1530 nM |
| CCCCC12CC(c3ccccc3)(c3ccccc3)C(c3ccccc31)c1cccc[n+]12.[O-][Cl+3]([O-])([O-])[O-] (stereo not drawn) [59(c), 6,11-ethano-12,12-diphenyl-6-butyl-6,11-dihydrobenzo[b]quinolizinium perchlorate] | 3910 nM |
| c1ccc2c(c1)C1CC(c3cnn[nH]3)(c3cnn[nH]3)C2c2cccc[n+]21 (stereo not drawn) [70(F), 6,11-ethano-12.12-di-(5-1,2,3-triazoyl)6,11-dihydrobenzo[b]quinolizinium Chloride] | 3830 nM |
| CCOC1(c2ccoc2)C2c3ccccc3C(C1C)[n+]1ccccc12 (single isomer, unassigned) [65(c), 6,11-ethano-12-(3-furyl)-12-ethoxy-13-methyl-6,11-dihydrobenzo[b]quinolizinium hexafluorophosphate] | 2.8 nM |
| Brc1ccc(Br)c2c1C1CC(c3ccoc3)(c3ccoc3)C2c2cccc[n+]21.[O-][Cl+3]([O-])([O-])[O-] (stereo not drawn) [60(e), 6,11-ethano-12,12-di(3-furyl)-7,10-dibromo-6,11-dihydrobenzo[b]quinolizinium perchlorate] | 345 nM |
| Clc1cccc(C2(c3cccc(Cl)c3)CC3c4ccccc4C2c2cccc[n+]23)c1 (stereo not drawn) [55(b), 6,11-ethano-12,12-di(m-chlorophenyl)-6,11-dihydrobenzo[b]quinolizinium chloride] | 104 nM |
| [O-][Cl+3]([O-])([O-])[O-].c1ccc(C2(c3ccccc3)CC3c4ccccc4C2c2cccc[n+]23)cc1 (stereo not drawn) [111(a), 6,11-Ethano-12,12-diphenyl-6,11-dihydrobenzo[b]quinolizinium perchlorate] | 6.07 nM |

| Structure (SMILES) | Ki |
| --- | --- |
| CC(C)Oc1cccc2c1C1c3cccc[n+]3C2CC1(c1ccccc1)c1ccccc1 (stereo not drawn) [32(F), 6,11-ethano-12.12-diphenyl-10-isopropoxy-6,11-dihydrobenzo[b]quinoliziniumchloride] | 468 nM |
| CCOC12c3ccoc3CCC1C1c3ccccc3C2c2cccc[n+]21 (stereo not drawn) [9(b), 6,11[[5',4!]-4'-ethoxy-4',5',6',7'-tetrahydrobenzofuryl]-6,11-dihydrobenzo[b]quinolizinium hexafluorophosphate] | 5.9 nM |
| COc1cccc(C23c4ccccc4CC2C2c4ccccc4C3c3cccc[n+]32)c1 (stereo not drawn) [5(c), 6.11[[2',3']-3'-(3-methoxyphenyl)-indanyl]6,11-dihydrobenzo[b]quinolizinium hexafluorophosphate] | 13.3 nM |
| COc1ccc(C2(c3ccc(OC)cc3)CC3c4ccccc4C2c2cccc[n+]23)cc1 (stereo not drawn) [44(b), 6,11-ethano-12,12-di(p-methoxyphenyl)-6,11-dihydrobenzo[b]quinolizinium hexafluorophosphate] | 28100 nM |
| c1ccc2c(c1)CC1C2C2c3ccccc3C1[n+]1ccccc12 (single isomer, unassigned) [Example 2(b), 6,11[[2',3']indanyl]6,11-dihydrobenzo[b]quinolizinium chloride] | 262 nM |
| COc1cccc2c1C1c3cccc[n+]3C2CC1(c1ccoc1)c1ccoc1 (stereo not drawn) [66(g), 6,11-ethano-12,12-di(3-furanyl)-10-methoxy-6,11-dihydrobenzo[b]quinolizinium chloride] | 6 nM |
| FC(F)(F)c1ccc2c(c1)C1c3cccc[n+]3C2CC1(c1ccccc1)c1ccccc1 (stereo not drawn) [45(E), 6,11-ethano-12,12-diphenyl-9-trifluoromethyl-6,11-dihydrobenzo[b]quinolizinium chloride 1/4 hydrate] | 491 nM |
| Cc1cc[n+]2c(c1)C1c3ccccc3C2CC1(c1ccccc1)c1ccccc1.[O-][Cl+3]([O-])([O-])[O-] (stereo not drawn) [54(E), 6,11-ethano-12,12-diphenyl-2-methyl-6,11-dihydrobenzo[b]quinolizinium perchlorate] | 52 nM |
| CCOC1(c2cc(C)oc2C)CC2c3ccccc3C1c1cccc[n+]12 (stereo not drawn) [12(b), 6,11-ethano-12-(2,5-dimethyl)-3-furyl]-12-ethoxy-6,11-dihydrobenzo[b]quinolizinium hexafluorophosphate] | 253 nM |
| c1ccc2c(c1)C1CC(c3cn[nH]c3)(c3cn[nH]c3)C2c2cccc[n+]21 (stereo not drawn) [161(d), 6,11-ethano-12,12-di(pyrazol-4-yl)]-6,11-dihydrobenzo[b]quinolizinium perchlorate] | 3680 nM |
| Fc1ccc(C2(c3ccc(F)cc3)CC3c4ccccc4C2c2cccc[n+]23)cc1 (stereo not drawn) [31(c), 6,11-ethano-12,12-di(p-fluorophenyl)-6,11-dihydrobenzo[b]-quinolizinium chloride] | 2210 nM |
| Cn1ccc(C2(c3ccn(C)n3)CC3c4ccccc4C2c2cccc[n+]23)n1 (stereo not drawn) [158(f), 6,11-ethano-12,12-di[3-(1-methylpyrazolyl)]-6,11-dihydrobenzo[b]quinolizinium chloride] | 632 nM |
| c1ccc2c(c1)C1C3CCc4sccc4C3(c3ccoc3)C2c2cccc[n+]21 (stereo not drawn) [15(c), 6,11[[5',4']-4'-(3-furyl)-4',5',6',7'-tetrahydrothianaphthyl]6,11]-dihydrobenzo[b]quinolizinium hexafluorophosphate] | 1.4 nM |
| C=C1C2c3ccccc3C(c3cccc[n+]32)C1(c1ccoc1)c1ccoc1 (stereo not drawn) [162(d), 6,11-ethano-12,12-di(3-furyl)-13-methylene-6,11-dihydrobenzo[b]quinolizinium hexafluorophosphate] | 2.31 nM |
| Oc1cccc2c1C1c3cccc[n+]3C2CC1(c1cc[nH]n1)c1cc[nH]n1 (stereo not drawn) [175(b)] | 119 nM |
| COc1cccc2c1C1c3cccc[n+]3C2CC1(c1cc[nH]n1)c1cc[nH]n1 (stereo not drawn) [179(b), 6,11-ethano-12,12-di(pyrazolyl-3-yl]-10-methoxy-6,11-dihydrobenzo[b]quinolizinium chloride] | 259 nM |

Same assay, conditions: inhibition of [3H]TCP binding at 10 μM

| Structure (SMILES) | [3H]TCP percent inhibition @ 10 μm |
| --- | --- |
| FC(F)(F)c1cccc(C2(c3cccc(C(F)(F)F)c3)CC3c4ccccc4C2c2cccc[n+]23)c1.[Cl-] (stereo not drawn) [46(c), 6,11-ethano-12,12-di(m-trifluoromethylphenyl)-6,11-dihydrobenzo[b]quinolizinium chloride] | 31% |
